Paper PMC5590943, “Pharmacological characterisation of S 47445, a novel positive allosteric modulator of AMPA receptors” (PLoS ONE, 2017)
Like-named read-outs stand apart in the source and are kept apart here.

Legend:
PDE1 = assay: Enzyme and cell-based assay, [3H]cAMP + cAMP (1 μM)
[1] = system: human AMPA receptor GluA1o (GluA1 flop); assay: Glutamate-evoked currents, oocytes expressing recombinant human AMPA receptors; type: cell-based; details: S 47445 100 μM
Method: (§1) Compounds were tested by bath application.

[2] = molecular target: T1, human AMPA receptor GluA4i/2o (Homo sapiens, UniProt P42262+P48058, Q607R); assay: as above; type: cell-based
T1 construct: host or cells: Xenopus laevis oocytes
Method: as §1

[3] = molecular target: T2, human AMPA receptor GluA4o/2i (Homo sapiens, UniProt P42262+P48058, Q607R); assay: as above; type: cell-based
T2 construct: host or cells: Xenopus laevis oocytes
T2 sequence (P48058 21-902 T766N/P767A/S776N/A778Q/V780L/P797S/K798G/D799G/S800G/G801D): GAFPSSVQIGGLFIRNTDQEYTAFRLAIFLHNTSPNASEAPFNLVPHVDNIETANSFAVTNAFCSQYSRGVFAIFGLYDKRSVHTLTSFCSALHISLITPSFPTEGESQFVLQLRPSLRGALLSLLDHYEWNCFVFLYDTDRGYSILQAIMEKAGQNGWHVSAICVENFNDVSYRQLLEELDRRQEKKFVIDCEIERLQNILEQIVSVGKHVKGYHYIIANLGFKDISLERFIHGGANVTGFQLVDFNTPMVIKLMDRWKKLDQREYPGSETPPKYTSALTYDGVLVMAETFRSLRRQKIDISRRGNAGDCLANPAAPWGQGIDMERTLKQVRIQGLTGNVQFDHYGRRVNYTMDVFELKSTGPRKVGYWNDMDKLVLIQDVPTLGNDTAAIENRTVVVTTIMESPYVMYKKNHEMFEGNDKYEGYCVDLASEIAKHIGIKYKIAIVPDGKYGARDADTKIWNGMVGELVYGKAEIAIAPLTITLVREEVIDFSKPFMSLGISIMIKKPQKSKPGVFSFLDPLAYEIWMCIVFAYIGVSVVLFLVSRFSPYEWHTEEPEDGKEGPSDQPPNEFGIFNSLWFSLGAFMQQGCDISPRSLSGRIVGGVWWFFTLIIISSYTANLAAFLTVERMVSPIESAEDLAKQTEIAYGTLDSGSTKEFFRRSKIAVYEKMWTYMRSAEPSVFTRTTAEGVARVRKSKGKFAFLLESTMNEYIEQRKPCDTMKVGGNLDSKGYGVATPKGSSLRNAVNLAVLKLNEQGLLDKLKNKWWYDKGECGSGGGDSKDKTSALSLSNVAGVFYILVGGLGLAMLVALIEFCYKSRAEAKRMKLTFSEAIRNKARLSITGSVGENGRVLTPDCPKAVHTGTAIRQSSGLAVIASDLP
T2 sequence (P42262 25-883 isoform P42262-2 Q607R): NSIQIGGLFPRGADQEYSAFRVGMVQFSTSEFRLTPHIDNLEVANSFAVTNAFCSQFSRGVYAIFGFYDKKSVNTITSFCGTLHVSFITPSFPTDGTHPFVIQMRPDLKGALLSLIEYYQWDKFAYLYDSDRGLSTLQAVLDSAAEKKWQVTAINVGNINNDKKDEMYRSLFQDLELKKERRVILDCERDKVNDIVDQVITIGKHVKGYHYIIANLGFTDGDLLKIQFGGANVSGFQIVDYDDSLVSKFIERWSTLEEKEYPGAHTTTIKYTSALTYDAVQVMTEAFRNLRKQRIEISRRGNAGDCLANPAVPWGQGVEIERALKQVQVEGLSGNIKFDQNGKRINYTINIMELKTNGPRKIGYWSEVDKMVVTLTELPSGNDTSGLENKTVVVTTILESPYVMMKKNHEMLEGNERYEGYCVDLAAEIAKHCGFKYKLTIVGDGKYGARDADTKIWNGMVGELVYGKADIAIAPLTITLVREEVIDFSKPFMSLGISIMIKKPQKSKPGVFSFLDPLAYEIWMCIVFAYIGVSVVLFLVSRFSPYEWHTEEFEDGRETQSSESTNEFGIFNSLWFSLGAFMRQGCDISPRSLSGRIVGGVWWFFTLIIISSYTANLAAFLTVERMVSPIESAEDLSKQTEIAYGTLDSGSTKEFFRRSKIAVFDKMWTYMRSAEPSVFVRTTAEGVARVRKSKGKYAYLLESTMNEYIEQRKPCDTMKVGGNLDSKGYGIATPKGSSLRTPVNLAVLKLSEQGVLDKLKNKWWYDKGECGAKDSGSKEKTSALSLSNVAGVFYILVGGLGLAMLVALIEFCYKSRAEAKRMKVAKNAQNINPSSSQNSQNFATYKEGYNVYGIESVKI
Method: as §1

[4] = molecular target: T3, human AMPA receptor GluA4i (GluA4 flip) (Homo sapiens, UniProt P48058); assay: as above; type: cell-based
T3 construct: host or cells: Xenopus laevis oocytes
Method: as §1

[5] = molecular target: T4, human AMPA receptor GluA1i/2i (Homo sapiens, UniProt P42261+P42262, Q607R); assay: as above; type: cell-based
T4 construct: host or cells: Xenopus laevis oocytes
Method: as §1

[6] = molecular target: T5, human AMPA receptor GluA4i/2i (Homo sapiens, UniProt P42262+P48058, Q607R); assay: as above; type: cell-based
T5 construct: host or cells: Xenopus laevis oocytes
Method: as §1

[7] = molecular target: T6, human AMPA receptor GluA1i (GluA1 flip) (Homo sapiens, UniProt P42261); assay: as above; type: cell-based
T6 construct: host or cells: Xenopus laevis oocytes
Method: as §1

[8] = molecular target: T7, human AMPA receptor GluA1o/2o (Homo sapiens, UniProt P42261+P42262, Q607R); assay: as above; type: cell-based
T7 construct: host or cells: Xenopus laevis oocytes
Method: as §1

[9] = molecular target: T8, human AMPA receptor GluA4o/2o (Homo sapiens, UniProt P42262+P48058, A778Q/D799G/G801D/K798G/P767A/P797S/Q607R/S776N/S800G/T766N/V780L); assay: as above; type: cell-based
T8 construct: host or cells: Xenopus laevis oocytes
T8 sequence (P48058 21-902 T766N/P767A/S776N/A778Q/V780L/P797S/K798G/D799G/S800G/G801D): as the sequence (P48058 21-902 T766N/P767A/S776N/A778Q/V780L/P797S/K798G/D799G/S800G/G801D) above
T8 sequence (P42262 25-883 Q607R): as the sequence (P42262 25-883 isoform P42262-2 Q607R) above, with T741N, P742A, S751N, V755L, A772S, K773G, D774G, S775G, G776D counted along it
Method: as §1

[10] = molecular target: T9, human AMPA receptor GluA4o (GluA4 flop) (Homo sapiens, UniProt P48058, A778Q/D799G/G801D/K798G/P767A/P797S/S776N/S800G/T766N/V780L); assay: as above; type: cell-based
T9 construct: host or cells: Xenopus laevis oocytes
T9 sequence (P48058 21-902 T766N/P767A/S776N/A778Q/V780L/P797S/K798G/D799G/S800G/G801D): as the sequence (P48058 21-902 T766N/P767A/S776N/A778Q/V780L/P797S/K798G/D799G/S800G/G801D) above
Method: as §1

[11] = molecular target: T10, human AMPA receptor GluA1o/2i (Homo sapiens, UniProt P42261+P42262, Q607R); assay: as above; type: cell-based
T10 construct: host or cells: Xenopus laevis oocytes
Method: as §1

[12] = molecular target: T11, human AMPA receptor GluA1i/2o (Homo sapiens, UniProt P42261+P42262, Q607R); assay: as above; type: cell-based
T11 construct: host or cells: Xenopus laevis oocytes
Method: as §1

[13] = molecular target: T12, human AMPA receptor GluA1o (GluA1 flop) (Homo sapiens, UniProt P42261); assay: as above; type: cell-based
T12 construct: host or cells: Xenopus laevis oocytes
Method: as §1

[14] = system: about a hundred receptors, enzymes, transporters and channels; assay: CEREP panel, competition binding and enzyme assays
PDE3 (h) = assay: Enzyme and cell-based assay, [3H]cAMP + cAMP (0.1 μM)
[15] = system: Ca2+ channel (L, DHP site); assay: Binding assay, [3H](+)PN 200-110
Kainate = assay: Binding assay, [3H]kainic acid, rat cerebral cortex membranes
[16] = parameters: method as in previous kinetic experiments (reference not given); details: 0.3 mg/kg oral, mice; ref previous kinetic experiments (reference not given); read-out: Cerebral Cmax; cited from earlier work
[17] = parameters: method as in previous kinetic experiments (reference not given); details: 0.3 mg/kg oral, rats; ref previous kinetic experiments (reference not given); read-out: Cerebral Cmax; cited from earlier work
α2 (non-selective) = assay: Binding assay, [3H]RX 821002
[18] = molecular target: AMPA/Kainate chimera GluA1(K2NTD) (Homo sapiens, UniProt P42261+Q13002); assay: Glutamate-evoked current in oocytes expressing AMPA/Kainate chimera; type: cell-based
Method: as §1

male NMRI mice = assay: Spontaneous locomotor activity in mice; type: in vivo, mouse; details: 10, 30 and 100 mg/kg p.o. acute
Method: Locomotor activity was measured in male NMRI mice (18–20 g, Janvier Labs, Le Genest Saint Isle, France) placed in open-fields equipped with infrared sensors (Imetronic, Pessac, France). Two parameters were automatically computed: the global locomotor activity and the number of rearing by counting the number of times the animal cut photocells. Mice were placed in the apparatus 30 min after oral administration of S 47445 (10, 30 and 100 mg/kg) or vehicle. Spontaneous locomotor activity was recorded for 60 min divided in 6 x 10-min periods. The global locomotor activity was analysed using two way ANOVA (dose x time) followed by Dunnett’s post hoc test. Analyses were performed using SAS v9.2 software (SAS Institute, Cary, NC).

Phospholipase A2 = assay: Enzyme and cell-based assay, [3H]phosphatidylethanolamine
[19] = molecular target: human GluK2 kainate receptors (Homo sapiens, UniProt Q13002); assay: Glutamate-evoked current in oocytes expressing kainate receptors; details: up to 100 μM; n = 12

Structure (SMILES): O=C1c2cc3nnn(CCc4cccc(F)c4)c(=O)c3cc2OCN1C1CC1 [S 47445, 8-cyclopropyl-3-[2-(3-fluorophenyl)ethyl]-7,8-dihydro-3H-[1,3]oxazino[6,5-g][1,2,3]benzotriazine-4,9-dione]
- % Inhibition of control specific binding (PDE1; S 47445 1.0E-05 M): 10%
- % Inhibition of control specific binding (PDE1; S 47445 1.0E-07 M): 1%
- Amplitude of potentiation, flop variants compared to flip variants at GluA1 [1]: about 9 fold
- EC50 [2]: 3.3 µM
- EC50 [3]: 3.8 µM
- EC50 [4]: 3 µM
- EC50 [5]: 2.6 µM
- EC50 [6]: 5.4 µM
- EC50 [7]: 5.4 µM
- EC50 [8]: 3.9 µM
- EC50 [9]: 2.9 µM
- EC50 [10]: 0.7 µM
- EC50 [11]: 5.4 µM
- EC50 [12]: 4.3 µM
- EC50 [13]: 2.5 µM
- Percentage of inhibition of control value ([14]; 10 μM S 47445, all assays of S1 Table): lower than 50%
- Ki ([14]; read-out: Ki values in all these assays, inferred from <50% inhibition at 10 μM): > 10 µM
- % Inhibition of control specific binding (PDE3 (h); S 47445 1.0E-05 M): -5%
- % Inhibition of control specific binding (PDE3 (h); S 47445 1.0E-07 M): 0%
- % Inhibition of control specific binding ([15]; S 47445 1.0E-05 M): 1%
- % Inhibition of control specific binding ([15]; S 47445 1.0E-07 M): -16%
- % Inhibition of control specific binding (Kainate; S 47445 1.0E-05 M): 25%
- % Inhibition of control specific binding (Kainate; S 47445 1.0E-07 M): 7%
- Ki (Kainate; read-out: Ki, glutamate binding site, n = 2): > 10 µM
- Cmax [16]: 100 to 200 nM
- Cmax [17]: 100 to 200 nM
- % Inhibition of control specific binding (α2 (non-selective); S 47445 1.0E-05 M): -5%
- % Inhibition of control specific binding (α2 (non-selective); S 47445 1.0E-07 M): -2%
- EC50 [18]: 4.2 µM
- Global spontaneous locomotor activity (male NMRI mice): did not significantly modify
- Number of rearing (male NMRI mice): did not influence
- % Inhibition of control specific binding (Phospholipase A2; S 47445 1.0E-05 M): -4%
- % Inhibition of control specific binding (Phospholipase A2; S 47445 1.0E-07 M): 0%
- Effect on glutamate-evoked current [19]: did not modify glutamate-evoked current
